Values quoted from earlier work as cited in patent US7183291B2 (Council of Scientific and Industrial Research, priority 1999, dated 2007).

Assays:
[1] = system: P. cynomolgi B. infection; conditions: 3.16 mg/kg×3 doses; monkeys; cited from earlier work
[2] = system: P. cynomolgi B. infection; conditions: 1 mg/kg×7 days; cited from earlier work
[3] = system: rodent malaria; conditions: in vivo; cited from earlier work
[4] = system: rodent malaria; conditions: in vivo; cited from earlier work; remark: listed apart in the source
[5] = system: erythrocytes; conditions: cited from earlier work
[6] = system: rodent malaria; conditions: in vivo; cited from earlier work; remark: listed apart in the source
[7] = system: rodent malaria; conditions: given directly to the insect; cited from earlier work

Molecule: COc1cc(NC(C)CCCNC2=C(C(C)=O)CCO2)c2ncccc2c1 (stereo not drawn) [N^1-(3-acetyl-4,5-dihydro-2-furanyl)-N^4-(6-methoxy-8-quinolinyl)-1,4-pentanediamine]
- causal prophylactic activity [1]: causal prophylactic activity
- anti-relapse (radical curative) activity [2]: exerts anti-relapse (radical curative) activity

Molecule: COc1cc(NC(C)CCCN)c2ncccc2c1O (stereo not drawn) [formula (3), 5-hydroxy-6-methoxy-8-(4-amino-1-methylbutylamino) quinoline]
- blood schizontocidal activity [3]: highly active
- gametocytocidal activity [4]: inactive
- oxidation of oxyhemoglobin (HbO2) to methemoglobin (Met Hb) and of reduced glutathione (GSH) [5]: cause oxidation

Molecule: COC1(O)C=C(NC(C)CCCN)c2ncccc2C1O (stereo not drawn) [formula (4), 5,6-dihydroxy-6-methoxy-8-(4-amino-1-methylbutylamino) quinoline]
- blood schizontocidal activity [3]: highly active
- gametocytocidal activity [4]: only a slight gametocytocidal activity

Molecule: COc1cc(N)c2ncccc2c1 [formula (10), 6-methoxy-8-aminoquinoline]
- blood schizontocidal activity [3]: no significant activity
- tissue schizontoidal effect relative to primaquine [6]: two to three times more active than primaquine
- direct sporontocidal activity [7]: directly sporontocidal

Molecule: Nc1cc(O)c(O)c2cccnc12 [formula (11), 5,6-dihydroxy-8-aminoquinoline]
- blood schizontocidal activity [3]: no significant activity
- tissue schizontoidal effect relative to primaquine [6]: two to three times more active than primaquine
- direct sporontocidal activity [7]: directly sporontocidal
- oxidation of oxyhemoglobin (HbO2) to methemoglobin (Met Hb) and of reduced glutathione (GSH) [5]: cause oxidation

Molecule: COc1cc(NC(C)CCC(=O)O)c2ncccc2c1 (stereo not drawn) [formula (12), 8-(3-carboxy-1-methylpropylamino)-6-methoxy quinoline]
- gametocytocidal activity [4]: inactive
- methemoglobin formation in vitro ([5]; in vitro): does not cause methemoglobin formation

Molecule: Desmethyl primaquine [formula (5)]
- blood schizontocidal activity [3]: little
- gametocytocidal activity [4]: inactive
